Data as given in PMC8434099, “Selected Drug-Likeness Properties of 2-Arylidene-indan-1,3-dione Derivatives—Chemical Compounds with Potential Anti-Cancer Activity” (Molecules, 2021).

Experiments:
[1] = Chromatographic (RP-HPLC) examination of lipophilicity, Snyder–Soczewiński model; assay type: physicochemical; details: for logkw (ACN) / logkw (MeOH): RP-HPLC, extrapolated Snyder–Soczewiński curve; for logkw (ACN) / −S (ACN): acetonitrile as organic modifier; for logkw (MeOH) / −S (MeOH): methanol as organic modifier; for Δ = |logkw-MeOH − logkw-ACN|: difference of logkw between modifiers; for −S (ACN) / −S (MeOH): slope of the Snyder–Soczewiński regression curve; for Compliance with the lipophilicity assumption of the Lipiński’s rule (logkw below 5): analyses using methanol as a modifier
Method: The chromatographic analysis was carried out on a Shimadzu device equipped with a pump system (LC-20AD model), a detector with a diode bench (SPD-M20A model), a degasser (DGU-20A 5R model), a chromatographic oven (CTO-10AS VP), autosampler (SIL-20AC HT model), and chromatographic column (LiChrospher 100 RP-18, 5 μm, Poznań, Poland). Analyses were performed, leading to a multicratic elution. The mobile phase was methanol (J. T. Backer, Phillipsburg, NJ, USA) or acetonitrile (J. T. Backer) and water (Hydrolab, HPL5UV model, Straszyn, Poland) in different volume ratios. In individual analyses, the concentration of the organic modifier expressed as a […] was 0.75–0.95 with a constant step of 0.05. The test compounds were dissolved in methanol. The injection volume was 10 µL. The flow was set at 1 mL/min, the temperature of the chromatography oven at 25 °C, and the detector temperature at 2 °C higher than the ambient temperature. Compounds were detected in the range 190–800 nm. All samples were tested in duplicate at least. Column dead time (tM) was determined using uracil (Sigma Aldrich). The retention coefficient was calculated using the following formula:(1) k=tR/tM−1, where tR is the retention time of the test compound in a given eluent composition, and tM is the chromatographic column dead time.
The value of lipophilicity was determined using the linear dependence of the decimal logarithm from the retention coefficient (logk) and the concentration of the organic modifier in the mobile phase, which was expressed as a volume fraction. For this purpose, the following formula was used:(2) logk=logkw+Sφ, where logk is the decimal logarithm of the retention coefficient, logkw is the value obtained by extrapolating the curve, S is the slope of the regression curve, and φ is the volume fraction of the organic modifier.
The coefficient of determination (R^2) was also calculated for the prepared curves.

[2] = tested on: Human Serum Albumin (HSA); experiment: Binding to albumin, fluorescence quenching; details: calculated from association constant KS for albumin concentration in blood of 44 mg/mL (660 μM); for fraction unbound: human, human serum albumin solution (10 µM HSA), pH 7.4, read-out: free fraction (albumin)
Method: Fluorescence lifetime and fluorescence intensity of HSA solutions were measured using the time-resolved Fluorescence Spectrophotometer Life Spec II (Edinburgh Instruments Ltd., Livingston, UK) with the sub-nanosecond pulsed EPLED diode emitting a light of the wavelength 280 nm. The spectrometer was equipped with electronically cooled photomultiplier Hamamatsu R928 connected with TCC900 PC Card, which incorporates all the electronic modules required for Time-Correlated Single Photon Counting (TCSPC). The fluorescence decays were recorded at an emission wavelength of 350 nm. The data were fitted with an exponential decay to obtain total fluorescence intensity and lifetime. Measurements were performed at room temperature using quartz cuvettes 3.5 × 10 mm. The exposure time of the sample was 30 s. A spectrophotometer Jasco V-550 was used for absorption measurements.
Human Serum Albumin (HSA, 97%) was purchased from Sigma Aldrich. For the fluorescence quenching measurements, the 10 µM PBS solution of HSA at pH 7.4 was prepared, and 10 mM stock solutions of studied compounds were prepared in DMSO (dimethylsulfoxide). The final concentration of studied compounds in HSA solution varied between 0 and 70 µM.
Fluorescence quenching of albumin can be described by the Stern–Volmer Equation [21]: (3) F0/F=KSV[Q]+1, where F0 and F are the fluorescence intensities in the absence and presence of quencher, respectively, [Q] is the concentration of quencher, and KSV is the Stern–Volmer quenching constant.
Due to the fact that a quencher can absorb light at the excitation and/or emission wavelengths, the measured intensity should be corrected according to the Formula [22]:(4) Fobserved=Fcorrect×10^−Aex×dex/2−Aem×dem/2, where Fobserved is the measured fluorescence, Fcorrect is the fluorescence that would be measured in the absence of absorption effect, Aex and Aem are the absorbances of ligand at the excitation (280 nm) and emission wavelength (350 nm), respectively, and dex and dem are the cuvette pathlength in the excitation and emission direction (0.35 cm and 1 cm, respectively).
As the fluorophore can be quenched by collisions or by complex formation with the quencher, there are two types of quenching: dynamic and static. They can be distinguished by lifetime measurements. […] If the quenching is known to be dynamic, then:(5) F0/F=KD[Q]+1=τ0/τ, where τ0 and τ are the lifetimes in the absence and presence of quencher, and KD is the dynamic quenching constant.
In many cases, both static and dynamic quenching occurs for the same fluorophore, then modified Stern–Volmer equation has the form:(6) F0/F=(KD[Q]+1)(KS[Q]+1)=τ0/τ(KS[Q]+1),
The dynamic portion of the quenching (KD[Q] + 1), according to Equation (5), can be determined by lifetime measurements. The portion (KS[Q] + 1) relates to static quenching, and KS is the association constant, which is given by:(7) KS=[F−Q]/[F][Q], where [F−Q] is the concentration of complex fluorophore–quencher, [F] is the concentration of uncomplexed fluorophore (concentration of free HSA molecules), and [Q] is the concentration of quencher.
In this study, the tested compounds were added to the HSA solution, and the fluorescence intensity and lifetime at 350 nm were measured for varying concentrations of ligands. On the basis of absorbance measurements of ligands at 280 nm and 350 nm, the correct fluorescence intensities were estimated using Equation (4). Then, the Stern–Volmer constants, dynamic quenching constants, and association constants of studied compounds were determined using Equations (3), (5) and (6), respectively.
Knowing the value of association constant KS, it is possible to determine the theoretical percentage of the bound and free fraction of the drug for the physiological concentration of albumin. […]

A549 cells = experiment: Antiproliferative activity, MTT protocol; assay type: cell-based, human; details: 0.01 mg/mL, 72 h, relative to control culture
Method: (§1) Mouse melanoma (B16F10), human lung carcinoma (A549), and human cervix (HeLa) cell lines (kindly gifted by Prof. Tomasz Drewa, a Chair of Urology, Department of Regenerative Medicine, Collegium Medicum, Nicolaus Copernicus University, Bydgoszcz, Poland) were cultivated at 37 °C, controlled CO2 atmosphere (Binder, Tuttlingen, Germany), and high humidity with RPMI cell culture medium (with L-glutamine and sodium bicarbonate, Sigma-Aldrich), supplemented with 10% of fetal bovine serum (FBS, Biowest, Nuaillé, France), as well as antibiotics (penicillin, streptomycin) and antimycotics (amphotericin B) (Sigma-Aldrich). Combretastatin A4 (CA4), doxorubicin (DoX), and […] were purchased from Sigma-Aldrich.
(§2) Cells were counted with an automated cell counter (Countess® II FL, Invitrogen by Thermo Fisher Scientific Inc., Waltham, MA, USA). A number of 1 × 10^3 (B16F10, A549) or 2.5 × 10^3 cells were plated in each well of 96-well plate (Nunc Edge 2F, Thermo Fisher Scientific Inc.) and left for 24 h incubation prior to drug administration. After this period, the medium was replaced with a fresh medium containing the drugs (at final concentration of 0.01 mg/mL) and left for incubation for the next 72 h. A solution of thiazol blue tetrazolium (MTT, Sigma-Aldrich) was prepared in PBS at concentration of 5 mg/mL and administrated to the cell culture medium at the volume of 10% of the initial medium volume. After 2 h of incubation, the medium was removed, and crystals of formazan were solubilized in isopropanol (Sigma-Aldrich). Absorbance readout was conducted using plate reader Multiskan Spectrum (Thermo Electron Corporation, Waltham, MA, USA) at 570 nm.
(§3) Combretastatin A4 (CA4), doxorubicin (DX), and […] were employed as positive controls. Biological evaluation was performed as three independent experiments; mean response and standard deviation were calculated using Excel software (v. 2013, Microsoft Corporation, Redmond, WA, USA).

HeLa cells = experiment: Antiproliferative activity, MTT protocol; assay type: cell-based, human; details: 0.01 mg/mL, 72 h
Method: as §1, §2, §3

SMILES	logkw (ACN) [1]	logkw (MeOH) [1]	Δ = |logkw-MeOH − logkw-ACN| [1]	−S (ACN) [1]	−S (MeOH) [1]	bound fraction (albumin) [2] [%]	fraction unbound [2]	Compliance with the lipophilicity assumption of the Lipiński’s rule (logkw below 5) [1]	Inhibition of development and division of A549 cells (in words) (A549 cells)	Number of HeLa cells compared to the control culture (HeLa cells) [%]	Effect on HeLa cells (in words) (HeLa cells; relative to control culture)
O=C1C(=Cc2ccccc2)C(=O)c2ccccc21 [Compound 3A, 2-benzylidene-1H-indene-1,3(2H)-dione]	2.2433	3.3210	1.0777	2.4449	3.3278	97	0.03				
CN(C)c1ccc(C=C2C(=O)c3ccccc3C2=O)cc1 [Compound 3B, 2-{[4-(dimethylamino)phenyl]methylidene}-1H-indene-1,3(2H)-dione]	2.2394	3.2790	1.0396	2.3613	3.1597	94	0.06				
COc1ccc(C=C2C(=O)c3ccccc3C2=O)cc1 [Compound 3C, 2-(4-methoxybenzylidene)-1H-indene-1,3(2H)-dione]	2.3042	3.3554	1.0512	2.4879	3.2782	94	0.06				
Cc1ccc(Oc2ccc(C=C3C(=O)c4ccccc4C3=O)cc2)cc1 [Compound 3D, 2-{[4-(4-methylphenoxy)phenyl]methylidene}-1H-indene-1,3(2H)-dione]	3.5726	5.6763	2.1037	3.5570	5.4798	97	0.03	do not meet this basic assumption of the Lipiński’s rule	most strongly inhibited		
COc1ccc(C=C2C(=O)c3ccccc3C2=O)cc1O [Compound 3E, 2-[(3-hydroxy-4-methoxyphenyl)methylidene]-1H-indene-1,3(2H)-dione]	1.5356	2.2321	0.6965	1.9201	2.4114	97	0.03				
COc1ccc2c(OC)ccc(C=C3C(=O)c4ccccc4C3=O)c2c1 [Compound 3G, 2-[(4,7-dimethoxynaphthalen-1-yl)methylidene]-1H-indene-1,3(2H)-dione]	2.8533		1.7531	2.8762		88	0.12		most strongly inhibited	7.15 ± 3.12	more effective than the control compounds
O=C1C(=Cc2ccoc2)C(=O)c2ccccc21 [Compound 3H, 2-[(furan-3-yl)methylidene]-1H-indene-1,3(2H)-dione]	1.9162	2.5521	0.6359	2.2011	2.6243	95	0.05				
O=C1C(=Cc2ccc(N(c3ccccc3)c3ccccc3)cc2)C(=O)c2ccccc21 [Compound 3I, 2-{[4-(diphenylamino)phenyl]methylidene}-1H-indene-1,3(2H)-dione]	3.8489	5.3524	1.5035	3.7589	5.0483	83	0.17	do not meet this basic assumption of the Lipiński’s rule			
O=C1C(=Cc2ccc(O)cc2)C(=O)c2ccccc21 [Compound 3J, 2-[(4-hydroxyphenyl)methylidene]-1H-indene-1,3(2H)-dione]		2.3814	1.3880		2.5802	96	0.04				
O=C1C(=CC2=Cc3cc(O)ccc3OC2)C(=O)c2ccccc21 [Compound 3K, 2-[(6-hydroxy-2H-1-benzopyran-3-yl)methylidene]-1H-indene-1,3(2H)-dione]	1.7720	2.9717	1.1997	2.1213	3.0667	92	0.08				
